Laboratory results as given in patent US8246999B2, “Capped mesoporous silicates” (Iowa State University Research Foundation, Inc., priority 2003, dated 2012).
Entries after “also recorded” stand apart in the source; their conditions may differ. Structures can show the parent of a compound that is named as a salt.

Key:
[1] = DTT-induced drug/neurotransmitter release study from CdS-capped MSN (HPLC); type: physicochemical; settings: for amount released / portion of encapsulated molecules released: after 3 days of DTT-induced uncapping; for release as share of the total release seen in 3 days: within 24 hours after introduction of 18.5 mM DTT
Description: CdS-capped MSN with vancomycin or ATP (10.00 mg) material was dispersed in 1.50 mL of PBS buffer (pH 7.4), followed by repeating wash/sonication/centrifugation cycles for five times to remove physisorbed, uncapped vancomycin or ATP molecules on the exterior surface of the material. The purified MSN/drug composite was redispersed in 3.50 mL of PBS buffer (pH 7.4). Aliquots were taken every 4 hours over a time period of 12 hours from the MSN/water suspension and injected to an analytical HPLC system (Hitachi LC/3DQMS with a reverse phase C18 column (Vydac), 0.4 cm×25 cm) to monitor the leaching of the mesoporous channel encapsulated vancomycin or ATP molecules. After 12 hours, dithiothreitol (DTT, 18.50 mM) was added to the suspension to cleave the disulfide linkage between the CdS nanoparticle and the MSN. The kinetic profiles of the DTT-induced release of vancomycin and ATP were monitored by following two literature-reported HPLC separation conditions. The peaks/areas at 280 and 258 nm were monitored/integrated for the quantitative analysis of amounts of released vancomycin and ATP, respectively. See Farin, D., et al., J. Pharm. Biomed. Anal. 1998, 18, 367-372; and Veciana-Nogues, M. T., et al., Food Chem. 1997, 59, 467-472.

[2] = test system: astrocytes; type: cell-based, rat
Description: • (i) Wistar rats, raised at Iowa State University, were used for these experiments. Animal care and experimental protocols were in accordance with the guidelines and approval of the Iowa State University Committee on Animal Care. • (ii) Cell Cultures. Enriched primary astrocyte cultures from neonatal (P0 to P3) rat cerebral cortex were prepared as previously described by Jeremic, A., et al., J. Neurochem. 2001, 77, 664-675. Briefly, freshly dissected cortical tissues from three animals were incubated 50 minutes at 37° C. in 2.00 mL of Earle's balanced salt solution (EBSS; Gibco-Invitrogen Co.) containing papain (1.54 mg/mL; Sigma-Aldrich Co.). After incubation, tissue was rinsed with EBSS solution and incubated for 5 minutes in trypsin-inhibitor solution (1 mg/mL; Gibco-Invitrogen Co.). After being rinsed, once with EBSS solution and once with culture medium (consisting of α-minimum essential medium (α-MEM; Gibco-Invitrogen Co.) supplemented with 10% heat-inactivated fetal bovine serum (FBS; Gibco-Invitrogen Co.) and 1.00 mL of penicillin-streptomycin solution (Sigma-Aldrich Co.) per 100 mL), the tissue was mechanically dispersed in culture medium by triturating through a fire-polished glass pipet. The cell suspension was transferred to sterile 15-mL centrifuge tubes and spun at 1000 g for 10 minutes. Cell pellets were resuspended in culture medium (α-MEM supplemented with 10% heat-inactivated FBS and 1.00 mL of penicillin-streptomycin solution per 100.00 mL) and plated in culture flasks. Cells were maintained at 37° C. in a humidified 5% CO2/95% air atmosphere. Culture medium was changed every 2 to 3 days. When mixed cultures reached confluence (9-12 days), the flasks were shaken (260 rpm) for 90 minutes to remove microglia and dividing type I astroglia. After shaking the cells, medium was replaced, and the flasks were incubated for 1 hour to equilibrate with CO2 in the fresh medium. Cultures were then shaken overnight (12-18 hours) at 260 rpm at 37° C. Cultures enriched in type I astroglia were obtained by trypsinizing (0.25%; Sigma-Aldrich Co.) attached cells for 5 minutes. […]

[3] = Loading of vancomycin and ATP into linker-MSN and capping with CdS (HPLC of filtrate); type: physicochemical; settings: for amount of mesopore-encapsulated molecule per 100.0 mg of linker-MSN material: CdS-capped MSN, calculated from concentration decrease in filtrate, HPLC; for loading efficiency: CdS-capped linker-MSN
Description: Purified linker-MSN material from sub-part (b) below (100.00 mg) was incubated in a PBS buffer solution (0.60 mL, pH 7.4) of ATP or vancomycin (3.00 μmol in both cases) for 24 hours. Mercaptoacetic acid-functionalized CdS nanoparticles from sub-part (c) below (0.15 mmol) were dissolved in 2.00 mL of PBS buffer with vancomycin or ATP (0.01 mmol in both cases); 1-[3-(dimethylamino)propyl]-3-ethylcarbodiimide hydrochloride (EDC) (57.50 mg, 0.30 mmol) was added to the CdS/drug solution. The reaction mixture was allowed to stir for 24 hours, followed by centrifuging the suspension at 12 000 rpm for 3 minutes. The resulting precipitates (ATP- or vancomycin-loaded, CdS-capped MSNs) were isolated and dried under vacuum.
The resulting reaction suspensions were centrifuged, and the CdS-capped MSN/drug composite materials along with the unreacted CdS nanoparticles were filtered. The concentrations of the free vancomycin and ATP molecules in the filtrate were then determined by HPLC. The calculated concentration decreases of solution vancomycin and ATP were attributed to the amounts of mesopore-encapsulated vancomycin (2.5 μmol) and ATP (4.7 μmol) per 100.0 mg of linker-MSN material. These numbers correspond to ca. 83.9 and 30.3 mol % loading efficiency, respectively.

[4] = literature reports; cited from earlier work

Structure (SMILES)	amount released [1] [µmol]	portion of encapsulated molecules released [1] [%]	release as share of the total release seen in 3 days [1] [%]	[Ca^2+]i response of astrocytes to ATP ([2]; 100.0 μM ATP perfusion, no MSNs, ME-treated astrocytes, triphosphate disodium salt)	[Ca^2+]i response of astrocytes to ATP in presence of empty capped MSNs ([2]; 100.0 μM ATP perfusion, CdS-capped MSNs without ATP encapsulation present, triphosphate disodium salt)	amount of mesopore-encapsulated molecule per 100.0 mg of linker-MSN material [3] [µmol]	loading efficiency [3]	[Ca^2+]i response of astrocytes to ME ([2]; ME 1.0 mM for 5 minutes, without MSNs)	isoelectric point (pI) [4]
Nc1ncnc2c1ncn2[C@@H]1O[C@H](COP(=O)([O-])OP(=O)([O-])OP(=O)(O)O)[C@@H](O)[C@H]1O.[Na+].[Na+] [ATP, adenosine triphosphate disodium salt]	1.3	28.2	85	obvious increases in [Ca^2+]i	[Ca^2+]i increased; also recorded: An increase in [Ca^2+]i	4.7	~30.3 mol %		
OCCS [ME]								no increase in [Ca^2+]; also recorded: failed to produce any [Ca^2+]i response	
CN[C@H](CC(C)C)C(=O)N[C@H]1C(=O)N[C@@H](CC(N)=O)C(=O)N[C@H]2C(=O)N[C@H]3C(=O)N[C@H](C(=O)N[C@H](C(=O)O)c4cc(O)cc(O)c4-c4cc3ccc4O)[C@H](O)c3ccc(c(Cl)c3)Oc3cc2cc(c3O[C@@H]2O[C@H](CO)[C@@H](O)[C@H](O)[C@H]2O[C@H]2C[C@](C)(N)[C@H](O)[C@H](C)O2)Oc2ccc(cc2Cl)[C@H]1O [vancomycin, Vancomycin hydrochloride]	1.6	53.8	85			2.5	ca. 83.9 mol %		8.3
